Data: the NIST ThermoML archive (doi:10.1016/j.tca.2012.09.040)
Numbers after ± are expanded uncertainties.

Assay: of the first substance listed, at infinite dilution; xn = mol fraction of the nth substance listed
Conditions: 100 kPa, Liquid, isoperibol

| Compound | partial molar enthalpy (298.15 K, x1 = 0) | partial molar enthalpy (318.15 K, x1 = 0) | partial molar enthalpy (298.15 K, x2 = 1) | partial molar enthalpy (318.15 K, x2 = 1) |
| --- | --- | --- | --- | --- |
| CN(C)C=O [dimethylformamide] + CCCCCCCCO | 1.35 ± 0.0263 kcal/mol | 1.22 ± 0.0239 kcal/mol |  |  |
| CCCCCCCCO [octan-1-ol] + CN(C)C=O |  |  | 1.55 ± 0.0311 kcal/mol | 1.52 ± 0.0311 kcal/mol |
